{
  "source": "patent US20220259212A1",
  "about": "“INHIBITORS OF INDOLEAMINE 2,3-DIOXYGENASE AND/OR TRYPTOPHAN 2,3-DIOXYGENASE” (Idorsia Pharmaceuticals Ltd, priority 2019, published 2022)",
  "key": {"IDO1 in SKOV3 cells": {"molecular_target": "T1, IDO1 in SKOV3 cells (Homo sapiens, UniProt P14902)", "T1 construct": "SKOV3 cells (NCI, No. 0503405) which upregulate IDO1 after stimulation with IFNγ; host or cells: SKOV3 cells stimulated with IFNγ", "T1 sequence (P14902 whole entry)": "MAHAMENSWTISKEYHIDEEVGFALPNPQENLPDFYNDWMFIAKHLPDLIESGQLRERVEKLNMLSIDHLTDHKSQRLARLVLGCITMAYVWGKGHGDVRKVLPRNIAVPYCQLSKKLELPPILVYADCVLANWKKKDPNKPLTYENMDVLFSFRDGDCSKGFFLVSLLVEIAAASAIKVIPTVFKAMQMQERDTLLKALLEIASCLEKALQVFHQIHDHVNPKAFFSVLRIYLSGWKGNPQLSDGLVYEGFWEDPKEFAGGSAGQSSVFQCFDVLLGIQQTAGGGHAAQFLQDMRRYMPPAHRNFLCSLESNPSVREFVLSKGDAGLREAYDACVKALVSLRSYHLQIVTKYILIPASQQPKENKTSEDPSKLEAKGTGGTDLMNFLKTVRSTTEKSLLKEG", "experiment": "Cell-based IDO inhibitory activity in IFNγ-stimulated SKOV3 cells (NFK + kynurenine by LCMS)", "settings": "IFNγ 50 ng/ml, 200 uM L-tryptophan, 24 hours", "in_short": "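SKOV3 cells (4000/well, pre-cultured 24 h) were treated with compound (10 uM-40 nM) plus 200 uM L-tryptophan and 50 ng/ml IFNγ for 24 h at 37° C. N-formylkynurenine plus kynurenine in supernatant was measured by LCMS against a d5-tryptophan internal standard. IC50 was fitted against 0.2% DMSO and reference-inhibitor controls, in duplicate, with repeat measurements averaged.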"}, "[1]": {"molecular_target": "T2, Recombinant human TDO comprising amino acids 19-407 (Homo sapiens, UniProt P48775)", "T2 construct": "human TDO comprising amino acids 19-407; hexahistidine (N); made in house; host or cells: E. coli", "T2 sequence (P48775 19-406 limits assumed)": "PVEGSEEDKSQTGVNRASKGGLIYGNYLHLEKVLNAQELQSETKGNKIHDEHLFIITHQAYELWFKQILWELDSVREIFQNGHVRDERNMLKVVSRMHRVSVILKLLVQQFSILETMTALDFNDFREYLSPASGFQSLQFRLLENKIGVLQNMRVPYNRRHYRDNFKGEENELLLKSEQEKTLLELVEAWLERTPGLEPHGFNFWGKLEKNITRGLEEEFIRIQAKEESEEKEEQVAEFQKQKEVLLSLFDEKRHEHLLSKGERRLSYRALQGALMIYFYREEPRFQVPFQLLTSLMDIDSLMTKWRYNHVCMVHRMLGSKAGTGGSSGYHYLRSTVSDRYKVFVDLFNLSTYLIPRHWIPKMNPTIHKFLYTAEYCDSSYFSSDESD", "experiment": "TDO2 enzymatic assay (NFK quantified by LCMS)", "format": "biochemical", "settings": "15 nM enzyme, 200 μM L-tryptophan, 30 min pre-incubation, pH7; mean if measured multiple times; read-out: hTDO activity (IC50 in nM)", "in_short": "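E. coli-expressed N-terminal His-tagged TDO (15 nM) in pH 7 phosphate buffer with ascorbate and catalase, preincubated 30 min at RT with compound (10 μM to 0.5 nM, 0.6% DMSO). Reaction started with 200 μM L-tryptophan for 30 min at RT; NFK measured by LCMS against deuterated internal standard, IC50 by four-parameter fit, duplicates.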"}, "[2]": {"molecular_target": "T3, Recombinant full-length human IDO1 (Homo sapiens, UniProt P14902)", "T3 construct": "Recombinant full-length human IDO1 with a N-terminal hexahistidine tag; hexahistidine (N); made in house; host or cells: E. coli", "T3 sequence (P14902 whole entry)": "as the sequence (P14902 whole entry) above", "experiment": "IDO1 enzymatic assay (NFK quantified by LCMS)", "format": "biochemical", "settings": "2 nM enzyme, 5 μM L-tryptophan, 30 min pre-incubation, pH6.5; mean if measured multiple times; read-out: hIDO activity (IC50 in nM)", "in_short": "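His-tagged full-length IDO1 (E. coli, 2 nM final) in pH 6.5 phosphate with ascorbate, methylene blue and catalase was preincubated 30 min at RT with compound (10 µM–0.5 nM, 0.6% DMSO), then run 30 min at RT with 5 µM L-Trp. NFK was measured by LCMS against a d5-Trp standard. IC50 came from a four-parameter fit of duplicates.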"}},
  "data": [
    {"smiles": "OC(c1cnn(-c2ccccc2)n1)c1c(Cl)ccc2cncn12", "note": "(racemic) [Ref3, rac-(6-Chloro-imidazo[1,5-a]pyridin-5-yl)-(2-phenyl-2H-[1,2,3]triazol-4-yl)-methanol, reference compound]", "values": [
      {"measurement": "IC50", "setting": "IDO1 in SKOV3 cells", "value": "> 10000", "unit": "nM"},
      {"measurement": "IC50", "setting": "[1]", "value": 8920, "unit": "nM"},
      {"measurement": "IC50", "setting": "[2]", "value": 161, "unit": "nM"}
    ]},
    {"smiles": "CN1CCc2cc(-n3cc([C@H](O)c4c(C5CC5)ncc5cncn45)nn3)ccc21", "note": "[Example 47, (R)-(6-Cyclopropyl-imidazo[1,5-a]pyrazin-5-yl)-[1-(1-methyl-2,3-dihydro-1H-indol-5-yl)-1H-[1,2,3]triazol-4-yl]-methanol]", "values": [
      {"measurement": "IC50", "setting": "IDO1 in SKOV3 cells", "value": 145, "unit": "nM"},
      {"measurement": "IC50", "setting": "[1]", "value": "> 10200", "unit": "nM"},
      {"measurement": "IC50", "setting": "[2]", "value": 7.76, "unit": "nM"}
    ]},
    {"smiles": "OC(c1ccc(-c2ccccc2)s1)c1c(Cl)ccc2cncn12", "note": "(racemic) [Ref4, rac-(6-Chloro-imidazo[1,5-a]pyridin-5-yl)-(5-phenyl-thiophen-2-yl)-methanol, reference compound]", "values": [
      {"measurement": "IC50", "setting": "IDO1 in SKOV3 cells", "value": 8830, "unit": "nM"},
      {"measurement": "IC50", "setting": "[1]", "value": 8650, "unit": "nM"},
      {"measurement": "IC50", "setting": "[2]", "value": 275, "unit": "nM"}
    ]}
  ]
}
